One assay concerns Escherichia coli W3110. Put plainly: MIC assay. In kind it is cell-based. The conditions noted are these: for MIC: E. coli.
Assay [1] concerns Salmonella typhimurium LT2. Put plainly: MIC assay. In kind it is cell-based.
Assay [2] deals with Vibrio cholerae P4 (P27459DctxAB::KmR, SmR). Put plainly: MIC assay. The assay is classed as cell-based. Set-up: MIC: unit not given here.
For assay [3], the system named is Klebsiella pneumoniae 10031. Put plainly: MIC assay. The assay is classed as cell-based. Set-up: MIC: unit not given here.
The test system of another assay is Enterobacter cloacae. Kind of assay: MIC assay. The assay is classed as cell-based. Set-up: MIC: unit not given here.
The next assay relates to Morganella morganii. Kind of assay: MIC assay. The assay is classed as cell-based.
Another assay deals with Proteus mirabilis. Put plainly: MIC assay. Set-up: MIC: unit not given here. The assay is classed as cell-based.
The next assay addresses T1, Escherichia coli LpxC (Escherichia coli, UniProt P0A725).
T1 sequence (P0A725 1-305): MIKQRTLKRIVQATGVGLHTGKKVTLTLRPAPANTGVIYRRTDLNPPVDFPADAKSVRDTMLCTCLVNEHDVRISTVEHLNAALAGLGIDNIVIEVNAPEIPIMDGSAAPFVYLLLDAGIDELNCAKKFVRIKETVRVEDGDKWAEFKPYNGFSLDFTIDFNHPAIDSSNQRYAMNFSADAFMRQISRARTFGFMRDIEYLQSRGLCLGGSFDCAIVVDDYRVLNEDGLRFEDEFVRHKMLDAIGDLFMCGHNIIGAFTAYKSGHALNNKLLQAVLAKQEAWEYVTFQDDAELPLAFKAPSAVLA
Kind of assay: LpxC enzymatic assay (radiolabelled substrate, slow tight-binding kinetics). The assay is classed as biochemical. The method, then: The radiolabelled substrate for the LpxC enzymatic assays, [α-^32P] UDP-3-O-[(R)-3-hydroxymyristoyl]-N-acetylglucosamine, and the unlabelled carrier substrate were prepared as previously described. […] Serial twofold dilutions of each inhibitor were prepared in DMSO and added to the reaction mixture with a 10-fold dilution. The assays were initiated by addition of purified LpxC protein into the reaction mix with 1:4 dilution to the final concentration as specified.
The KM value was determined by varying substrate concentrations from 0.4 to 50 μM with 0.2 nM of LpxC. To study the slow, tight-binding inhibition, LpxC activity was assessed in the presence of varying inhibitor concentrations. […] The following time-dependent equation was used to fit the data: […]
The Ki* was determined by analysing the rate of product accumulation after formation of the stable EI* complex. […] The Morrison's quadratic equation was used to fit the fractional activity data to determine Ki^*app:
where [E]T and [I]T represent the total enzyme and inhibitor concentrations, respectively. The inhibition constant Ki* is converted from Ki^*app according to the following relationship:
For two-step slow-binding inhibition, kinetic parameters k5, k6 and Ki were extracted from curve fitting of experimental kobs values to inhibitor concentrations based on equations (5 and 6).

The subject of assay [4] is Pseudomonas aeruginosa PAO1. Kind of assay: MIC assay. The assay is classed as cell-based.
A further assay has as its system Chlamydia trachomatis. Put plainly: Minimal chlamydiacidal concentration (MCC). In kind it is cell-based. Set-up: Minimal chlamydiacidal concentration (MCC), listed in MIC column: unit not given here.
The test system of assay [5] is Acinetobacter baumannii 17978. Kind of assay: MIC assay. In kind it is cell-based.
Where [6] appears, read: E. coli LpxC, 20 pM enzyme, 5 μM substrate, 30 °C, Morrison fit, read-out: Ki* (inhibition constant of the stable EI* complex).
[7] abbreviates: fit of kobs vs inhibitor concentration, 30 μM substrate, 0.1 nM enzyme.

Converted amounts (≈) assume the structure as drawn. Like-named read-outs stand apart in the source and are kept apart here.

For the molecule `C[C@@H](O)[C@H](NC(=O)c1ccc(C#CC#Cc2ccc(N)cc2)cc1)C(=O)NO` [LPC-011], the MIC came out at 0.04 mg/L (≈ 0.106 µM) with Escherichia coli W3110; 0.06 mg/L (≈ 0.159 µM) in [1]; 0.063 in [2]; 0.01 in assay [3]; 0.052 against Enterobacter cloacae; 0.039 g/mL against Morganella morganii. This molecule displayed an MIC with Proteus mirabilis of 0.13.
Regarding `CC(C)(O)[C@H](NC(=O)c1ccc(C#CC#Cc2ccc(N)cc2)cc1)C(=O)NO` [LPC-037], the Ki on Escherichia coli LpxC (setting [6]) was 0.014 ± 0.001 nM.
On the same count and under the same terms, to `CC(C)(N)[C@H](NC(=O)c1ccc(C#CC#Cc2ccc(N)cc2)cc1)C(=O)NO` [LPC-040] belongs 0.012 ± 0.001 nM.
Turning to `C[C@@](O)(C(F)F)[C@H](NC(=O)c1ccc(C#CC#Cc2ccc(N)cc2)cc1)C(=O)NO` [LPC-058], the “enhancement of potency (Ki*) over CHIR-090” value on Escherichia coli LpxC (E. coli LpxC) is 44 fold. The “enhancement of potency (Ki*) over LPC-011” value at Escherichia coli LpxC (E. coli LpxC) stood at 7 fold. The Ki at Escherichia coli LpxC (setting [6]) turned out to be 0.0035 ± 0.0002 nM; on Escherichia coli LpxC (fit of kobs vs inhibitor concentration, 30 μM substrate, 0.1 nM enzyme, Ki* constrained, read-out: Ki (inhibition constant of the initial encounter complex EI)), 0.973 ± 0.128 nM. On Escherichia coli LpxC (setting [7]), the “k5 (forward rate from EI to EI*)” value came out at 0.39 ± 0.02 min⁻¹. The “k6 (reverse rate from EI* to EI)” value on Escherichia coli LpxC (setting [7]) came out at 0.0014 ± 0.0001 min⁻¹. In addition, the “Enhancement (MIC CHIR-090/MIC LPC-058)” value in the assay on Escherichia coli W3110 (Escherichia coli W3110) came to 7.2; in assay [4] it was 5.0; in assay [1] it was 12; in [2], 31; in assay [3] it was 13; with Enterobacter cloacae, 12. Also, the “Enhancement (MIC CHIR-090/MIC LPC-058)” value in the assay on Morganella morganii is 55; in the assay with Proteus mirabilis, 32; with Chlamydia trachomatis (MCC), 100; in assay [5] (Acinetobacter baumannii 17978), above 128. Moreover, the “Enhancement (MIC LPC-011/MIC LPC-058)” value in the assay with Escherichia coli W3110 (Escherichia coli W3110) is reported as 2.2; in assay [4], 2.0; in assay [1] it was 2.8; in assay [2] it was 3.9; in assay [3], 3.8; in the assay with Enterobacter cloacae, 2.0. Moreover, the “Enhancement (MIC LPC-011/MIC LPC-058)” value in the assay on Morganella morganii worked out at 2.0; with Proteus mirabilis, 5.0; in the assay on Chlamydia trachomatis (MCC), 6.0; in [5] (Acinetobacter baumannii 17978) it was 25. Moreover, the MIC in [4] came out at 0.167 mg/L (≈ 0.391 µM); in [1], 0.021 mg/L (≈ 0.0491 µM); in assay [2], 0.016; in [3] it was 0.0026; against Enterobacter cloacae, 0.026; against Morganella morganii, 0.019 g/mL. For the same molecule, the MIC stood at 0.026 with Proteus mirabilis and 0.39 mg/L (≈ 0.912 µM) in assay [5] (Acinetobacter baumannii). Moreover, in the assay with Chlamydia trachomatis, the “Minimal chlamydiacidal concentration (MCC), listed in MIC column” value was determined as 0.08.
Take `C[C@](O)([C@H](NC(=O)c1ccc(C#CC#Cc2ccc(N)cc2)cc1)C(=O)NO)C(F)(F)F` [LPC-083]: on Escherichia coli LpxC (E. coli LpxC), the “compromised inhibitory effect (Ki*) over parent compound LPC-037” value is “ninefold” and the “inhibition constant worse than LPC-011” value is recorded as “fivefold”. Also, the inhibition constant (Ki) at Escherichia coli LpxC (setting [6]) worked out at 0.125 ± 0.004 nM. The MIC against Escherichia coli W3110 was found to be 0.1 mg/L (≈ 0.225 µM).

Source of the values: article PMC4773385, “Drug design from the cryptic inhibitor envelope” (Nature Communications, 2016).
